In US11667631B2, “FGFR4 inhibitor, preparation method therefor, and applications thereof” (Jiangsu Hansoh Pharmaceutical Group Co., Ltd., priority 2016, dated 2023):
Read-outs that look alike come from different tables or passages of the source.

Columns and labels:
[1] = test system: HuH-7 cells; assay: Inhibition of HuH-7 cell proliferation (CellTiter-Glo); format: cell-based; conditions: Homo sapiens, Huh-7, 72 h, read-out: HuH-7 IC50
Experimental: In this experiment, the inhibitory effect of the compounds on HuH-7 cell proliferation was tested by a CellTiter-Glo method, and the half maximal inhibitory concentration (IC50) of the compounds on the activity of cell proliferation was determined.
1) A 96-well cell culture plate was seeded with 50˜100 μL of HuH-7 cell suspension at a density of 1˜5×10^4 cells/ml. The culture plate was incubated in an incubator for 16˜24 hours (37° C., 5% CO2).
(§1) 2) Different concentrations of the test compound in a gradient dilution were added to the cells in the culture plate. The culture plate was incubated in an incubator for 72 hours (37° C., 5% CO2).
3) 50˜100 μL of CellTiter-Glo reagent was added to each well. Then, the culture plate was shaken or left to stand for 5˜30 minutes at room temperature.
(§2) 4) The chemiluminescence signal values of each plate were determined by a microplate reader.
(§3) 5) The inhibition rates were calculated according to the chemiluminescence signal values.
(§4) 6) The IC50 of the compound was obtained by curve fitting according to the inhibition rates at different concentrations, and the cell activity of the specific example compounds is shown in Table 2.

[2] = test system: Hep 3B cells; assay: Inhibition of Hep 3B cell proliferation (CellTiter-Glo); format: cell-based
Experimental: In this experiment, the inhibitory effect of the compounds on Hep 3B cell proliferation was tested by a CellTiter-Glo method, and the half maximal inhibitory concentration (IC50) of the compounds on the activity of cell proliferation was determined.
1) A 96-well cell culture plate was seeded with 50˜100 μL of Hep 3B cell suspension at a density of 1˜5×10^4 cells/ml. The culture plate was incubated in an incubator for 16˜24 hours (37° C., 5% CO2).
as §1
(§5) 3) 50˜100 μL of CellTiter-Glo reagent were added to each well. Then, the culture plate was shaken or left to stand for 5˜30 minutes at room temperature.
as §2, §3

[3] = biological target: FGFR1 kinase (Homo sapiens (Human), UniProt P11362); assay: Enzymologic experiment of FGFR1 (TR-FRET); format: biochemical; conditions: FGFR1 kinase activity
Sequence of FGFR1 kinase (P11362 22-822): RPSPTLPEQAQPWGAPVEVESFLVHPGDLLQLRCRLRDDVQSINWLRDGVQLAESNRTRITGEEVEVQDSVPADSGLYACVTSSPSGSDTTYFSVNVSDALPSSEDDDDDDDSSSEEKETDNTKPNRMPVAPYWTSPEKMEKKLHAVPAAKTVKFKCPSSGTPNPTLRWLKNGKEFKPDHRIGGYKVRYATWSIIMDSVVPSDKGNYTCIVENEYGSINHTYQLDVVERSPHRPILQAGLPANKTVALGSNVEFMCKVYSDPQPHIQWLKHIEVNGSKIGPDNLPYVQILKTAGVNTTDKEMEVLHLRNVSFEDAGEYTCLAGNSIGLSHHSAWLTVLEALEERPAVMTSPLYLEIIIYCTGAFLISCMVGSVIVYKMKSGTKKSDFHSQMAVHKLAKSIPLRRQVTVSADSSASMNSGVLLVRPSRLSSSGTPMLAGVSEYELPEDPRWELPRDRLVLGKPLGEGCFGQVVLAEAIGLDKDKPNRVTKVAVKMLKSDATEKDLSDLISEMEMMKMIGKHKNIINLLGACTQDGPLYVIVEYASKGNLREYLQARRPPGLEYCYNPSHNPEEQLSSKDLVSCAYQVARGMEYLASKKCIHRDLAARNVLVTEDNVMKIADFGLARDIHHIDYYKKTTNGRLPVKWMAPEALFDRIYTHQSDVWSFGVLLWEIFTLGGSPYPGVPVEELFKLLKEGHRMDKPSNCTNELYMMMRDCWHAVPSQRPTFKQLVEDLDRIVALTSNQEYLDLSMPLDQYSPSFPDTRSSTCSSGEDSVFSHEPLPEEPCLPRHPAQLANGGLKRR
Experimental: In this experiment, the inhibitory effect of the compounds on FGFR1 kinase activity was tested by a fluorescence resonance energy transfer (TR-FRET) method, and the half maximal inhibitory concentration (IC50) of the compounds on the FGFR1 kinase activity was determined.
1) 1˜5 μL of FGFR1 enzyme solution was added to a 384-well plate, and the final concentration of the enzyme was 0.1˜5 nM.
2) 1˜5 μL of diluted solution in gradient of the compound was added.
3) 1˜5 μL of a substrate mixture containing substrate polypeptide with a final concentration of 5˜50 nM and ATP with a final concentration of 10˜200 μM was added.
4) The mixture was incubated for 0.5˜3 hours at room temperature.
5) 10 μL of EDTA and a test solution comprising labeled antibody were added, and the plate was incubated for 1 hour at room temperature.
6) The fluorescence signal values of each plate were determined by a microplate reader at 665 nm.
7) The inhibition rates were calculated according to the fluorescence signal values.
8) The IC50 of the compound was obtained by curve fitting according to the inhibition rates at different concentrations, and the enzymatic activity of the specific example compounds is shown in Table 1.

[4] = test system: SK-HEP-1 cells; assay: Inhibition of SK-HEP-1 cell proliferation (CellTiter-Glo); format: cell-based; conditions: Homo sapiens, SK-HEP1, 72 h, read-out: SK-HEP-1 IC50
Experimental: In this experiment, the inhibitory effect of the compounds on SK-HEP-1 cell proliferation was tested by a CellTiter-Glo method, and the half maximal inhibitory concentration (IC50) of the compounds on the activity of cell proliferation was determined.
1) A 96-well cell culture plate was seeded with 50˜100 μL of SK-HEP-1 cell suspension at a density of 1˜5×10^4 cells/ml. The culture plate was incubated in an incubator for 16˜24 hours (37° C., 5% CO2).
as §1, §5, §2, §3, §4

[5] = Pharmacokinetic (PK) analysis in rats; format: in vivo, Sprague Dawley (SD) rats; conditions: SD rats, single intragastric administration, 5 mg/kg; for Peak Time tmax: (sampling in hours); for AUC(0-t) / AUC(0-inf) / half-life / MRT / Cmax: Sprague-Dawley, rat, plasma, po; for AUC(0-t): read-out: Area Under Curve AUC0-t; for AUC(0-inf): read-out: Area Under Curve AUC0-∞; for half-life: read-out: Half-Time t1/2 (converted); for MRT: read-out: Mean Residence Time MRT; for Cmax: read-out: Plasma Concentration Cmax
Experimental: 1) 0.2 ml of intravenous blood was collected and placed in a K2EDTA test tube. The blood was centrifuged at room temperature at the speed of 1000˜3000×g for 5˜20 minutes to isolate the plasma, which was then stored at −80° C.
2) 160 μL of acetonitrile was added to 40 μL of plasma sample for precipitation, and then the mixture was centrifuged at the speed of 500˜2000×g for 5˜20 minutes.
3) 100 μL of treated solution was taken, and the concentration of the test compound was analyzed by LC/MS/MS. The LC/MS/MS analytical instrument was AB Sciex API 4000. • Liquid chromatography analysis: • Condition of Liquid chromatography: Shimadzu LC-20AD pump • Chromatographic column: phenomenex Gemiu 5 um C18 50×4.6 mm • Mobile phase: Solution A is 0.1% formic acid aqueous solution, and Solution B is acetonitrile • Flow rate: 0.8 mL/min • Elution time: 0-3.5 minutes, the eluent was used as follows: […]

[6] = Homo sapiens, Hep3B, 72 h, read-out: Hep 3B IC50, Hep 3B cell proliferation, 72 hours, CellTiter-Glo

SMILES | IC50 [1] | IC50 [2, 6] | IC50 [3] | IC50 [4] | Peak Time tmax [5] | AUC(0-t) [5] | AUC(0-inf) [5] | half-life [5] | MRT [5] | Cmax [5] | IC50 ([2]; read-out: Hep 3B IC50, Hep 3B cell proliferation, 72 hours, CellTiter-Glo)
COC1CCN(c2cc(NC(=O)N3CCCc4cc(CN5CCOCC5=O)c(C=O)nc43)ncc2C#N)C1 (centres unmarked) [Example 4, N-(5-Cyano-4-(3-methoxypyrrolidin-1-yl)pyridin-2-yl)-7-formyl-6-((3-carbonylmorpholino)methyl)-3,4-dihydro-1,8-naphthyridin-1(2H)-carboxamide] | 0.0184 µM | 0.0025 µM | > 10 µM | > 10 µM | 2 h | 8740 ng·h/mL | 8740 ng·h/mL | 0.61 h | 3.07 h | 3370 ng/mL | 
COCC1(Nc2cc(NC(=O)N3CCCc4cc(CN5CCOCC5=O)c(C=O)nc43)ncc2C#N)CC1 [Example 11] | 0.0124 µM | 0.0084 µM | > 10 µM | > 10 µM | 2 h | 3890 ng·h/mL | 3960 ng·h/mL | 1.16 h | 2.68 h | 1540 ng/mL | 
COCCSc1cc(NC(=O)N2CCCc3cc(CN4CCOCC4=O)c(C=O)nc32)ncc1C#N [Example 13, N-(5-Cyano-4-((2-methoxyethyl)thio)pyridin-2-yl)-7-formyl-6-((3-carbonylmorpholino)methyl)-3,4-dihydro-1,8-naphthyridin-1(2H)-carboxamide] | 0.0323 µM | 0.0208 µM | > 10 µM | > 10 µM | 2 h | 3510 ng·h/mL | 3570 ng·h/mL | 1.16 h | 2.8 h | 1200 ng/mL | 
CO[C@@H]1CCCC1Oc1cc(NC(=O)N2CCCc3cc(CN4CCOCC4=O)c(C=O)nc32)ncc1C#N (stereo partly drawn) [Example 16, N-(5-Cyano-4-(((trans)-2-methoxycyclopentyl)oxy)pyridin-2-yl)-7-formyl-6-((3-carbonylmorpholino)methyl)-3,4-dihydro-1,8-naphthyridin-1(2H)-carboxamide] | 0.0132 µM | 0.0105 µM | > 10 µM | > 10 µM | 2 h | 5520 ng·h/mL | 5610 ng·h/mL | 1.02 h | 2.96 h | 1600 ng/mL | 
CO[C@@H]1CCN(c2cc(NC(=O)N3CCCc4cc(CN5C(=O)OC[C@@H]5C)c(C=O)nc43)ncc2C#N)C1 [Example 38, N-(5-Cyano-4-((R)-3-methoxypyrrolidin-1-yl)pyridin-2-yl)-7-formyl-6-(((S)-4-methyl-2-carbonyloxazolidin-3-yl)methyl)-3,4-dihydro-1,8-naphthyridin-1(2H)-carboxamide] | 0.0118 µM | 0.0133 µM | > 10 µM | > 10 µM | 2 h | 2400 ng·h/mL | 2540 ng·h/mL | 1.38 h | 3.91 h | 2660 ng/mL | 
CO[C@H]1CCN(c2cc(NC(=O)N3CCCc4cc(CN5CCOC5=O)c(C=O)nc43)ncc2C#N)C1 [Example 40, (S)-N-(5-Cyano-4-(3-methoxypyrrolidin-1-yl)pyridin-2-yl)-7-formyl-6-((2-carbonyloxazolidin-3-yl)methyl)-3,4-dihydro-1,8-naphthyridin-1(2H)-carboxamide] | 0.0296 µM | 0.0387 µM | > 10 µM | > 10 µM | 2 h | 1080 ng·h/mL | 1100 ng·h/mL | 1.05 h | 3.36 h | 1560 ng/mL | 
CO[C@@H]1CCN(c2cc(NC(=O)N3CCCc4cc(CN5CCOC5=O)c(C=O)nc43)ncc2C#N)C1 [Example 41, (R)-N-(5-Cyano-4-(3-methoxypyrrolidin-1-yl)pyridin-2-yl)-7-formyl-6-((2-carbonyloxazolidin-3-yl)methyl)-3,4-dihydro-1,8-naphthyridin-1(2H)-carboxamide] | 0.0102 µM | 0.0099 µM | > 10 µM | > 10 µM | 2 h | 2880 ng·h/mL | 2960 ng·h/mL | 1.17 h | 3.12 h | 1920 ng/mL | 
CO[C@H]1CCN(c2cc(NC(=O)N3CCCc4cc(CN5CCOCC5=O)c(C=O)nc43)ncc2C#N)C1 [Example 51, (S)-N-(5-Cyano-4-(3-methoxypyrrolidin-1-yl)pyridin-2-yl)-7-formyl-6-((3-carbonylmorpholino)methyl)-3,4-dihydro-1,8-naphthyridin-1(2H)-carboxamide] | 0.0275 µM | 0.0251 µM | > 10 µM | > 10 µM | 2 h | 3720 ng·h/mL | 3730 ng·h/mL | 1.15 h | 3.84 h | 1020 ng/mL | 
CO[C@@H]1CCC[C@H]1Nc1cc(NC(=O)N2CCCc3cc(CN4CCOCC4=O)c(C=O)nc32)ncc1C#N [Example 60, N-(5-Cyano-4-(((1R,2R)-2-methoxycyclopentyl)amino)pyridin-2-yl)-7-formyl-6-((3-carbonylmorpholino)methyl)-3,4-dihydro-1,8-naphthyridin-1(2H)-carboxamide] | 0.0027 µM | 0.001 µM | > 10 µM | > 10 µM | 2 h | 3770 ng·h/mL | 3790 ng·h/mL | 0.88 h | 2.26 h | 1300 ng/mL | 
CO[C@@H]1CCC1Oc1cc(NC(=O)N2CCCc3cc(CN4CCOCC4=O)c(C=O)nc32)ncc1C#N (stereo partly drawn) [Example 61, N-(5-Cyano-4-trans-((1,2)-2-methoxycyclobutoxy)pyridin-2-yl)-7-formyl-6-((3-carbonylmorpholino)methyl)-3,4-dihydro-1,8-naphthyridin-1(2H)-carboxamide] | 0.0062 µM | 0.0037 µM | > 10 µM | > 10 µM | 2 h | 2110 ng·h/mL | 2120 ng·h/mL | 0.75 h | 2.96 h | 2640 ng/mL | 
CO[C@H]1CCOCC1Oc1cc(NC(=O)N2CCCc3cc(CN4CCOCC4=O)c(C=O)nc32)ncc1C#N (stereo partly drawn) [Example 68, N-(5-Cyano-4-(((3,4)-trans-4-methoxytetrahydro-2H-pyran-3-yl)oxy)pyridin-2-yl) -7-formyl-6-((3-carbonylmorpholino)methyl)-3,4-dihydro-1,8-naphthyridin-1(2H)-carboxamide] | 0.0408 µM |  | > 10 µM | > 10 µM |  |  |  |  |  |  | 0.0109 µM
